Converted amounts (≈) assume the structure as drawn. “Also recorded” adds a separate entry of the source. Like-named read-outs stand apart in the source and are kept apart here. Numbered stars: 1 amine (or outer) side, 2 acyl side, 3 side chain; on linkers, the order of the positions; unused ones are H or OH. Bridge positions count the residues as written; N and C are the ends. Square brackets hold non-standard residues; d marks the D form. Ends that are not written are not given here. Peptide text beside a SMILES is read from it. Phe(4-NH2) = Nc1ccc(C[C@H](N)C(=O)O)cc1; Suc = O=C(CCC(=O)[*:2])[*:1]
Columns and labels:
[1] = system: abdominal skin of C.R rats; assay: Rat skin test: intradermal injection of peptide, then intradermal compound 48/80 or vehicle, wheal area; type: in vivo; conditions: for Mean Wheal Area ± STD, Vehicle: vehicle instead of compound 48/80
Procedure, shortened: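 Peptide was injected intradermally (20 μl, in 10% DMSO/saline) at 20 or 200 μg; after 0.5 or 1 h, 20 μl compound 48/80 (0.1 mg/ml) or vehicle was injected intradermally at the same site. Wheal outlines were traced and areas measured by planimeter, reported as mean wheal area.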

[2] = system: purified rat peritoneal mast cells; type: cell-based; conditions: for Inhibitor (degree of inhibition of histamine secretion from mast cells): Table 1, incubation with different concentrations of each peptide, then induction of the allergic reaction
Procedure, shortened: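 Intact purified rat peritoneal mast cells were incubated at 37° C with increasing peptide concentrations, then stimulated with 5 μg/ml compound 48/80 (maximal release). Histamine secretion is expressed as % of total cellular histamine after subtracting spontaneous release, as the mean of duplicates.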

[3] = system: purified rat peritoneal mast cells; assay: Histamine secretion from intact mast cells incubated with peptide alone (secretagogue side effect); conditions: for Secretagogue (histamine secretion following incubation of mast cell with different concentrations of each peptide): no allergen; for histamine secretion from mast cells on incubation with increasing concentrations of peptide alone: no additional allergen
[4] = Peptide solubility (remarks; assay medium, Tyrode buffer); type: physicochemical
[5] = system: rat peritoneal mast cells; assay: Inhibition of IgE dependent (DNP-specific IgE / DNP-BSA) histamine secretion; type: cell-based
Description: Peptides 2 and 2-Suc were also tested in vitro for their ability to block histamine secretion from rat peritoneal mast cells, in response to the IgE-dependent mechanism. The IgE dependent pathway is activated in response to an immunological trigger, brought about by aggregation of the high affinity receptors (FeεRI) for IgE, which are present on the cell surface of mast cells. This response involves crosslinking of cell bound IgE antibodies by the corresponding antigens (allergens).
Isolated, purified mast cells were sensitized in the presence of a monoclonal DNP-specific IgE antibody (1 μg/10^6 cells) for 1 hour at 37° C. The cells were washed 3 times and incubated for 2 hours with different concentrations of each peptide, followed by triggering with the antigen DNP-BSA (100 ng/ml) in the presence of Brain Extract (0.1 mg/ml), for 20 min. at 37° C. Placing the tubes in ice terminated the reaction. The amount of histamine released from the cells was monitored.

[6] = system: purified rat peritoneal mast cells
[7] = intradermal peptide 1 mg/ml, 0.5 hour before allergic induction
[8] = intradermal peptide 1 mg/ml, 0.5 hour before
[9] = intradermal peptide 1 mg/ml, 1 hour before allergic induction
[10] = intradermal peptide 1 mg/ml, 1 hour before
[11] = intradermal peptide 10 mg/ml, 0.5 hour before allergic induction
[12] = intradermal peptide 10 mg/ml, 0.5 hour before
[13] = intradermal peptide 10 mg/ml, 1 hour before allergic induction
[14] = intradermal peptide 10 mg/ml, 1 hour before
[15] = intradermal peptide 0.5 hour before allergic induction
[16] = intradermal peptide, lower dose or 1 hour before allergic induction

## CC(C)C[C@@H]1NC(=O)CNC(=O)[C@H](CS)NC(=O)[C@H](CCC(=O)O)NC(=O)[C@H](CCCCN)NC(=O)[C@H](CC(C)C)NC(=O)[C@H](CC(N)=O)NC(=O)[C@H](CC(N)=O)NC(=O)[C@@H](NC(=O)[C@@H]2CCCN2C(=O)[C@H](C)NC(=O)[C@H](CC(C)C)NC(=O)[C@H](CC(C)C)NC(=O)[C@H](C)NC(=O)[C@H](CC(C)C)NC(=O)[C@H](CC(C)C)NC(=O)[C@@H](NC(=O)[C@H](C)NC(=O)[C@@H]2CCCN2C(=O)[C@H](CC(C)C)NC(=O)[C@H](CC(C)C)NC(=O)[C@H](C)NC(=O)[C@@H](NC(=O)[C@H](C)NC(=O)[C@H](C)N)C(C)C)C(C)C)CCCCNC(=O)[C@H](Cc2ccc(O)cc2)NC1=O [Peptide 2-Cyc] (H-AAVALLPAVLLALLAPKNNLKECGLY; lactam 17-C; N-terminus assumed)
[1]; intradermal peptide
  block of compound 48/80 induced allergic reaction in vivo, rat skin: less effective than peptide 2
[1]; [7]
  Mean Wheal Area ± STD, Compound 48/80: 104.4 ± 45.8 (n = 5) mm^2
[1]; [8]
  Mean Wheal Area ± STD, Vehicle: 61.4 ± 30.9 (n = 5) mm^2
[1]; [9]
  Mean Wheal Area ± STD, Compound 48/80: 84.5 ± 29.7 (n = 6) mm^2
[1]; [10]
  Mean Wheal Area ± STD, Vehicle: 54.6 ± 12.1 (n = 6) mm^2
[1]; [11]
  Mean Wheal Area ± STD, Compound 48/80: 82.6 ± 50.6 (n = 5) mm^2
[1]; [12]
  Mean Wheal Area ± STD, Vehicle: 58.8 ± 29.6 (n = 5) mm^2
[1]; [13]
  Mean Wheal Area ± STD, Compound 48/80: 75.3 ± 28.4. (n = 6) mm^2
[1]; [14]
  Mean Wheal Area ± STD, Vehicle: 45.0 ± 7.9 (n = 6) mm^2
[1]; [15]
  reduction of compound 48/80 induced allergic reaction: significant decrease in wheal area
[1]; [16]
  reduction of compound 48/80 induced allergic reaction: had no effect
[2]
  Inhibitor (degree of inhibition of histamine secretion from mast cells): + (+ Poor inhibitor (<50% inhibition))
[2]; range of peptide concentrations tested
  effect on compound 48/80 induced histamine secretion: only limited potential to block compound 48/80 induced histamine secretion
[3]; at a concentration of 100 μg/ml
  side effects of histamine secretion in mast cells, peptide alone: only minor side effects of histamine secretion
[4]
  solubility: very poor solubility

## CC(C)C[C@H](NC(=O)CNC(=O)[C@H](CS)NC(=O)[C@H](CCC(=O)O)NC(=O)[C@H](CCCCN)NC(=O)[C@H](CC(C)C)NC(=O)[C@H](CC(N)=O)NC(=O)[C@H](CC(N)=O)NC(=O)[C@H](CCCCN)NC(=O)[C@@H]1CCCN1C(=O)[C@H](C)NC(=O)[C@H](CC(C)C)NC(=O)[C@H](CC(C)C)NC(=O)[C@H](C)NC(=O)[C@H](CC(C)C)NC(=O)[C@H](CC(C)C)NC(=O)[C@@H](NC(=O)[C@H](C)NC(=O)[C@@H]1CCCN1C(=O)[C@H](CC(C)C)NC(=O)[C@H](CC(C)C)NC(=O)[C@H](C)NC(=O)[C@@H](NC(=O)[C@H](C)NC(=O)[C@H](C)NC(=O)CCC(=O)O)C(C)C)C(C)C)C(=O)N[C@@H](Cc1ccc(O)cc1)C(=O)O [Peptide 2-Suc] (Suc-AAVALLPAVLLALLAPKNNLKECGLY-OH; C-terminus assumed)
[1]; intradermal peptide
  block of compound 48/80 induced allergic reaction in vivo, rat skin: less effective than peptide 2
[1]; [7]
  Mean Wheal Area ± STD, Compound 48/80: 93.4 ± 32.0 (n = 11) mm^2
[1]; [8]
  Mean Wheal Area ± STD, Vehicle: 56.8 ± 24.1 (n = 11) mm^2
[1]; [9]
  Mean Wheal Area ± STD, Compound 48/80: 89.3 ± 30.1 (n = 12) mm^2
[1]; [10]
  Mean Wheal Area ± STD, Vehicle: 57.7 ± 23.2 (n = 12) mm^2
[1]; [11]
  Mean Wheal Area ± STD, Compound 48/80: 73.8 ± 28.7 (n = 10) mm^2
[1]; [12]
  Mean Wheal Area ± STD, Vehicle: 57.2 ± 21.7 (n = 10) mm^2
[1]; [13]
  Mean Wheal Area ± STD, Compound 48/80: 78.1 ± 28.3 (n = 12) mm^2
[1]; [14]
  Mean Wheal Area ± STD, Vehicle: 54.3 ± 25.8 (n = 12) mm^2
[1]; [15]
  reduction of compound 48/80 induced allergic reaction: significantly reduced the wheal
[1]; [16]
  reduction of compound 48/80 induced allergic reaction: had no effect
[2]
  IC50, compound 48/80 induced histamine secretion: 200 µg/mL (≈ 72 µM)
  Inhibitor (degree of inhibition of histamine secretion from mast cells): +++ (+++ Potent inhibitor (>85% inhibition))
[2]; 600 μg/ml peptide, compound 48/80 concentration not given
  maximal inhibition of compound 48/80 induced histamine secretion: 80%
[3]; Table 1, peptide alone
  Secretagogue (histamine secretion following incubation of mast cell with different concentrations of each peptide): −
[3]
  histamine secretion from mast cells on incubation with increasing concentrations of peptide alone: did not induce histamine secretion; also recorded: no stimulatory effect
[5]; 600 μg/ml peptide, DNP-BSA 100 ng/ml
  inhibition of IgE induced histamine secretion: 90%
[5]; DNP-specific IgE, DNP-BSA
  block of histamine secretion activated by an immunological trigger: effectively block histamine secretion
[4]
  solubility: more soluble in the assay medium, as compared to peptide 2

## CC(C)C[C@H](NC(=O)CNC(=O)[C@H](CS)NC(=O)[C@H](CCC(=O)O)NC(=O)[C@H](CCCCN)NC(=O)[C@H](CC(C)C)NC(=O)[C@H](CC(N)=O)NC(=O)[C@H](CC(N)=O)NC(=O)[C@H](CCCCN)NC(=O)[C@@H]1CCCN1C(=O)[C@H](C)NC(=O)[C@H](CC(C)C)NC(=O)[C@H](CC(C)C)NC(=O)[C@H](C)NC(=O)[C@H](CC(C)C)NC(=O)[C@H](CC(C)C)NC(=O)[C@@H](NC(=O)[C@H](C)NC(=O)[C@@H]1CCCN1C(=O)[C@H](CC(C)C)NC(=O)[C@H](CC(C)C)NC(=O)[C@H](C)NC(=O)[C@@H](NC(=O)[C@H](C)NC(=O)[C@H](C)N)C(C)C)C(C)C)C(=O)N[C@@H](Cc1ccc(N)cc1)C(=O)O [WALL005] (H-AAVALLPAVLLALLAPKNNLKECGL[Phe(4-NH2)]-OH; N-terminus and C-terminus assumed)
[3]; Table 9, peptide alone
  Secretagogue (histamine secretion following incubation of mast cell with different concentrations of each peptide): +
[3]
  histamine secretion from mast cells on incubation with increasing concentrations of peptide alone: resulted in histamine secretion
[4]
  solubility: severe solubility problems

## VTVLALGALAGVGVGKNNLKECGLY [Peptide 1]
[3]; Table 9, peptide alone
  Secretagogue (histamine secretion following incubation of mast cell with different concentrations of each peptide): +
[3]
  histamine secretion from mast cells on incubation with increasing concentrations of peptide alone: resulted in histamine secretion
[3]; peptide alone, concentration range of up to 400 p.g/ml (FIG. 1A)
  stimulatory effect on histamine secretion: hardly any stimulatory effect
[4]
  solubility: no solubility problems

## VTVLALGALAGVGVGPKNNLKECGLY [WALL010]
[6]
  Secretagogue (histamine secretion following incubation of mast cell with different concentrations of each peptide): +
  histamine secretion from mast cells on incubation with increasing concentrations of peptide alone: resulted in histamine secretion
[2]; 200 μg/ml peptide
  maximal inhibition of compound 48/80 induced histamine release: 16.7%
